Drawing on patent publication US20250170126A1 (MITSUBISHI TANABE PHARMA CORPORATION, priority 2022, published 2025), this text covers IC50 for 31 compounds.

Counter-ions that a name gives are not always drawn.

Chain of Human B0AT1 (Q695T7 whole entry): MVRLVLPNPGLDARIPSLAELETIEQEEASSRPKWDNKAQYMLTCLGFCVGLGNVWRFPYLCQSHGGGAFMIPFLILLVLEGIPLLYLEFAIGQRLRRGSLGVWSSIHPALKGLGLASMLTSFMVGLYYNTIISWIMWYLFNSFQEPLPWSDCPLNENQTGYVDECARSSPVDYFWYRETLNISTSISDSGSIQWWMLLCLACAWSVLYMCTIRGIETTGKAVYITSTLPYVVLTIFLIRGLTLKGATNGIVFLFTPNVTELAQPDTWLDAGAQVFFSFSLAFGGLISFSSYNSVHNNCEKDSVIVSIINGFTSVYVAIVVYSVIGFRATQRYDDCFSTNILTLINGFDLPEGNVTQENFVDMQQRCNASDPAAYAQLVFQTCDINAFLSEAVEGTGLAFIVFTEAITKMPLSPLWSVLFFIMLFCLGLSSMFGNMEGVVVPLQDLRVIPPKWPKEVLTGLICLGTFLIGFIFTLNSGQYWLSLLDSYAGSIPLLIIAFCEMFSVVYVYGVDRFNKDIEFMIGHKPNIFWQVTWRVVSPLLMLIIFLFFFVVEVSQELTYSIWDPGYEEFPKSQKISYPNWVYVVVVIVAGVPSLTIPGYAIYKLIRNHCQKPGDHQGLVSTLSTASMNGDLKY

For the assay, the target named is Human B0AT1 (Homo sapiens (Human), UniProt Q695T7). Kind of assay: hB0AT1 inhibitory test (phenylalanine uptake). It counts as cell-based. The settings on record: Human B0AT1 stable expression CHO cells; [3H]-L-phenylalanine uptake, phenylalanine 0.25 mM. How it is done:
A test compound dissolved in dimethyl sulfoxide (DMSO) was added to a 96 well plate for solid phase radioactivity measurement containing a scintillator at the bottom of the well (final concentration of DMSO 0.5%). DMSO alone as a control and DMSO containing N-(4-bromophenyl)-3,5-dichloro-2-hydroxybenzamide (final concentration […]) for the is measurement of B0AT1 non-specific uptake were similarly added at 0.5 μL per well. Human B0AT1 stable expression CHO cells suspended in a buffer (buffer containing 96 mM sodium chloride, 2 mM potassium chloride, 1.8 mM calcium chloride, 1 mM magnesium chloride, 0.01% bovine serum albumin, and 10 mM 2-[4-(2-hydroxyethyl)-1-piperazinyl]ethanesulfonic acid) were added by 90 μL to 75000 cells/well. After standing at ordinary temperature for 30 min or longer, the cells were subjected to a phenylalanine uptake experiment. A buffer containing L-phenylalanine and [3,4,5-3H]-L-phenylalanine was added by 10 μL per well (final concentration of phenylalanine 0.25 mM), and the radioactivity of the plate bottom surface at ordinary temperature was measured with a scintillation counter over time, and the radioactivity value after 100 to 200 min was analyzed. A value obtained by subtracting the B0AT1 non-specific uptake from the control uptake was taken as 100%, and the concentration necessary for each test compound to achieve 50% inhibition (IC50 value) was determined by nonlinear regression using a logistic model.
Compound `CN1CCN(C(=O)CNC(=O)/C=C/c2ccc(C(F)(F)F)cc2)[C@H](C(=O)O)C1` [I-123, (2S)-4-methyl-1-[2-[[(E)-3-[4-(trifluoromethyl)phenyl]prop-2-enoyl]amino]acetyl]piperazine-2-carboxylic acid] returned an IC50 of 175 nM.
With `O=C(/C=C/c1ccc(C(F)(F)F)cc1)NCC(=O)N1CC[C@H](C(=O)O)C1` [I-125, (3S)-1-[2-[[(E)-3-[4-(trifluoromethyl)phenyl]prop-2-enoyl]amino]acetyl]pyrrolidine-3-carboxylic acid] the figure was 1620 nM; with `CN1CCN(C(=O)CNC(=O)/C=C/c2ccc(-c3ccc(F)cc3)cc2)CC1` [I-126, (E)-3-[4-(4-fluorophenyl)phenyl]-N-[2-(4-methylpiperazin-1-yl)-2-oxoethyl]prop-2-enamide], 38 nM; with `CN1CCN(C(=O)CNC(=O)/C=C/c2ccc(-c3cc(F)c(F)c(F)c3)cc2)CC1` [I-127], 88 nM.
Under `CN1CCN(C(=O)CNC(=O)/C=C/c2ccc(-c3ccc(C(F)(F)F)cc3)cc2)CC1` [I-128] stands 678 nM; under `CC(C)(O)c1cc2n(n1)CCN(C(=O)CNC(=O)/C=C/c1ccc(C(F)(F)F)cc1)C2` [I-129, (E)-N-[2-[2-(1-hydroxy-1-methylethyl)-6,7-dihydro-4H-pyrazolo [1,5-a]pyrazin-5-yl]-2-oxoethyl]-3-[4-(trifluoromethyl)phenyl]prop-2-enamide], 66 nM.
Under `CNC(=O)CC(COC)N(CCOC)C(=O)CNC(=O)/C=C/c1ccc(C(F)(F)F)cc1` (stereo not shown) [I-130, 4-methoxy-3-[2-methoxyethyl-[2-[[(E)-3-[4-(trifluoromethyl)phenyl]prop-2-enoyl]amino]acetyl]amino]-N-methylbutanamide] stands 486 nM; under `Cc1nnc([C@H]2CN(C(=O)CNC(=O)/C=C/c3ccc(C(F)(F)F)cc3)CCN2C)o1` [I-131, (E)-N-[2-[(3R)-4-methyl-3-(5-methyl-1,3,4-oxadiazol-2-yl)piperazin-1-yl]-2-oxoethyl]-3-[4-(trifluoromethyl)phenyl]prop-2-enamide], 1930 nM.
`O=C(/C=C/c1ccc(C(F)(F)F)cc1)NCC(=O)N1CCNCC1` [I-133, (E)-N-(2-oxo-2-piperazin-1-ylethyl)-3-[4-(trifluoromethyl)phenyl]prop-2-enamide hydrochloride] returned an IC50 of 69 nM.
Under `CCNC(=O)N1CCN(C(=O)CNC(=O)/C=C/c2ccc(C(F)(F)F)cc2)CC1` [I-134, N-ethyl-4-[2-[[(E)-3-[4-(trifluoromethyl)phenyl]prop-2-enoyl]amino]acetyl]piperazine-1-carboxamide] stands 1240 nM; under `CN1CCN(C(=O)CNC(=O)/C=C/c2ccc(C(F)(F)F)cc2)[C@@H](C(=O)N(C)C)C1` [I-138, (2R)-N,N,4-trimethyl-1-[2-[[(E)-3-[4-(trifluoromethyl)phenyl]prop-2-enoyl]amino]acetyl]piperazine-2-carboxamide], 406 nM; under `CNC(=O)[C@H]1CN(C)CCN1C(=O)CNC(=O)/C=C/c1ccc(C(F)(F)F)cc1` [I-139, (2R)-N,4-dimethyl-1-[2-[[(E)-3-[4-(trifluoromethyl)phenyl]prop-2-enoyl]amino]acetyl]piperazine-2-carboxamide], 133 nM.
With `O=C(/C=C/c1ccc(C(F)(F)F)cc1)NCC(=O)N1CCn2cc(C(=O)O)nc2C1` [I-140, 7-[2-[[(E)-3-[4-(trifluoromethyl)phenyl]prop-2-enoyl]amino]acetyl]-6,8-dihydro-5H-imidazo[1,2-a]pyrazine-2-carboxylic acid] the figure was 328 nM.
`O=C(/C=C/c1ccc(C(F)(F)F)cc1)NCC(=O)N1C[C@H](O)C[C@@H]1c1ccccc1` [I-141, (E)-N-[2-[(2R,4R)-4-hydroxy-2-phenylpyrrolidin-1-yl]-2-oxoethyl]-3-[4-(trifluoromethyl)phenyl]prop-2-enamide] registered a 50% inhibitory concentration (IC50) of 1720 nM.
Regarding `CC(=O)N[C@H]1CCN(C(=O)CNC(=O)/C=C/c2ccc(C(F)(F)F)cc2)C1` [I-143, (E)-N-[2-[(3S)-3-acetamidopyrrolidin-1-yl]-2-oxoethyl]-3-[4-(trifluoromethyl)phenyl]prop-2-enamide], the IC50 was 550 nM.
Under `CNC(=O)[C@H]1CCN(C(=O)CNC(=O)/C=C/c2ccc(C(F)(F)F)cc2)C1` [I-144, (3S)-N-methyl-1-[2-[[(E)-3-[4-(trifluoromethyl)phenyl]prop-2-enoyl]amino]acetyl]pyrrolidine-3-carboxamide] stands 261 nM; under `CN(C)C(=O)[C@H]1CCN(C(=O)CNC(=O)/C=C/c2ccc(C(F)(F)F)cc2)C1` [I-145, (3S)-N,N-dimethyl-1-[2-[[(E)-3-[4-(trifluoromethyl)phenyl]prop-2-enoyl]amino]acetyl]pyrrolidine-3-carboxamide], 1700 nM.
Under `CN(C)C(=O)c1cn2c(n1)CN(C(=O)CNC(=O)/C=C/c1ccc(C(F)(F)F)cc1)CC2` [I-146] stands 93 nM; under `COCCN(C)C(=O)CN(CCOC)C(=O)CNC(=O)/C=C/c1ccc(C(F)(F)F)cc1` [I-147, (E)-N-[2-[2-methoxyethyl-[2-[2-methoxyethyl(methyl)amino]-2-oxoethyl]amino]-2-oxoethyl]-3-[4-(trifluoromethyl)phenyl]prop-2-enamide], 298 nM; under `COCCN(CC(=O)N(C)CCO)C(=O)CNC(=O)/C=C/c1ccc(C(F)(F)F)cc1` [I-148, (E)-N-[2-[[2-[2-hydroxyethyl(methyl)amino]-2-oxoethyl]-(2-methoxyethyl)amino]-2-oxoethyl]-3-[4-(trifluoromethyl)phenyl]prop-2-enamide], 259 nM.
With `COCCN(CC(=O)N(C)C)C(=O)CNC(=O)/C=C/c1ccc(C(F)(F)F)cc1` [I-149, (E)-N-[2-[[2-(dimethylamino)-2-oxoethyl]-(2-methoxyethyl)amino]-2-oxoethyl]-3-[4-(trifluoromethyl)phenyl]prop-2-enamide] the figure was 170 nM; with `O=C(/C=C/c1ccc(C(F)(F)F)cc1)NCC(=O)N1CCn2nc(C(F)(F)F)nc2C1` [I-172], 44 nM.
Turning to `O=C(/C=C/c1ccc(C(F)(F)F)cc1)NCC(=O)N1CCn2nc(CO)cc2C1` [I-173, (E)-N-[2-[2-(hydroxymethyl)-6,7-dihydro-4H-pyrazolo[1,5-a]pyrazin-5-yl]-2-oxo-ethyl]-3-[4-(trifluoromethyl)phenyl]prop-2-enamide], it took 30 nM to reach half-maximal inhibition (IC50).
Under `Cc1nc2n(n1)CCN(C(=O)CNC(=O)/C=C/c1ccc(C(F)(F)F)cc1)C2` [I-174] stands 48 nM; under `COCCN(Cc1cnccn1)C(=O)CNC(=O)/C=C/c1ccc(C(F)(F)F)cc1` [I-175], 71 nM.
With `O=C(/C=C/c1ccc(C(F)(F)F)cc1)NCC(=O)N1CC[C@H](n2cccn2)C1` [I-176], the IC50 came out at 185 nM.
With `O=C(/C=C/c1ccc(C(F)(F)F)cc1)NCC(=O)N1CC[C@@H](n2cccn2)C1` [I-177] the figure was 87 nM.
With `O=C(/C=C/c1ccc(C(F)(F)F)cc1)NCC(=O)N1Cc2nccnc2C1` [I-178] the figure was 60 nM.
Compound `O=C(/C=C/c1ccc(C(F)(F)F)cc1)NCC(=O)N1CCCn2ccnc2C1` [I-179] came in with an IC50 of 60 nM. That is a double-digit nanomolar value.
Compound `O=C(/C=C/c1ccc(C(F)(F)F)cc1)NCC(=O)N1CCn2nccc21` [I-180] gave an IC50 of 20 nM.
Under `C[C@H]1Cn2nccc2CN1C(=O)CNC(=O)/C=C/c1ccc(C(F)(F)F)cc1` [I-181] stands 60 nM.

As a reminder, the IC50 is the concentration needed to halve the response being measured.
